The target of the first test is T1, hCRTH2 (Homo sapiens, UniProt Q9Y5Y4).
T1 construct: expressed in transfected cells; host or cells: HEK (human embryonic kidney) cells expressing hCRTH2; membrane preparation
T1 sequence (Q9Y5Y4 1-395): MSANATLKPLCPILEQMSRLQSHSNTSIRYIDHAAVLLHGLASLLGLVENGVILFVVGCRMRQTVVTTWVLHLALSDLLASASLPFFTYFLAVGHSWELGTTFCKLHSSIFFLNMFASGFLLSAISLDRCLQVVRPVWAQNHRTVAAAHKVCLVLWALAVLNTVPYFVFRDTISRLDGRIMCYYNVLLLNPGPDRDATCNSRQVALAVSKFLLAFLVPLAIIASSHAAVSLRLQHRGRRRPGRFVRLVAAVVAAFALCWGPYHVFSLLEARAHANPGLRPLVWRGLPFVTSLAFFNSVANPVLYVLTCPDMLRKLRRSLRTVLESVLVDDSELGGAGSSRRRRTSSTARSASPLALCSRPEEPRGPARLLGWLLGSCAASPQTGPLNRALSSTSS
As to the kind of experiment: Radioligand binding assay ([3H]PGD2 competition, HEK-hCRTH2 membranes). The conditions noted are these: [3H]PGD2 binding, rated A-E (Table A). In outline:
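Displacement of 3.0 nM [3H]PGD2 from human CRTH2 expressed in HEK membranes was measured at room temperature over 60 min. Unlabelled PGD2 at 10 μM gave non-specific binding.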
In the case of `O=C(O)CCCCc1nc2cc(C(=O)N3CC[C@@H](c4ccccc4)C3)ccc2nc1-c1ccccc1` [compound 140, 3-phenyl-7-[(3(S)-phenyl-1-pyrrolidinyl)carbonyl]-2-quinoxalinepentanoic acid], the Ki was 0.0001 to 0.002 µM. For the molecule `O=C(O)CCCCc1nc2cc(C(=O)N3CC[C@H](c4ccccc4)C3)ccc2nc1-c1ccccc1` [compound 141, 3-phenyl-7-[(3(R)-phenyl-1-pyyrolidinyl)carbonyl]-2-quinoxalinepentanoic acid], the Ki was in the range of 0.0021 to 0.02 µM. Turning to `O=C(O)CCCCc1nc2cc(C(=O)N3CCC[C@@H](c4ccccc4)C3)ccc2nc1-c1ccccc1` [compound 142, 3-phenyl-7-[(3(S)-phenyl-1-piperidinyl)carbonyl]-2-quinoxalinepentanoic acid], the Ki was in the range of 0.0021 to 0.02 µM. Molecule `O=C(O)CCCCc1nc2cc(C(=O)N3CCC[C@H](c4ccccc4)C3)ccc2nc1-c1ccccc1` [compound 143, 3-phenyl-7-[(3(R)-phenyl-1-piperidinyl)carbonyl]-2-quinooxalinepentanoic acid] displayed a Ki of 0.0021 to 0.02 µM. With `NC(=O)c1ccc2nc(-c3ccccc3)c(CCCCC(=O)O)nc2c1` [compound 144, 5-(7-carbamoyl-3-phenylquinoxalin-2-yl)pentanoic acid], the inhibitory constant (Ki) lay within 0.0201 to 0.2 µM. The same measure, in the same setting: the value for `O=C(O)CCCCc1nc2cc(C(=O)N3CCC(n4ccnc4)CC3)ccc2nc1-c1ccccc1` [compound 145, 5-(7-(4-(1H-imidazol-1-yl)piperidine-l-carbonyl)-3-phenylquinoxalin-2-yl)pentanoic acid] was 0.0021 to 0.02 µM.

With `C[C@H](NC(=O)c1ccc2nc(-c3ccc(C(F)(F)F)cc3)c(CCCCC(=O)O)nc2c1)c1ccccn1` [compound 146, 7-[[[1(S)-(2-pyridinyl)ethyl]amino]carbonyl]-3-[4-(trifluoromethyl)phenyl]-2-quinoxalinepentanoic acid], the Ki lay in the range of 0.0201 to 0.2 µM. Molecule `C[C@@H](NC(=O)c1ccc2nc(-c3ccc(C(F)(F)F)cc3)c(CCCCC(=O)O)nc2c1)c1ccccn1` [compound 147, 7-[[[1(R)-(2-pyridinyl)ethyl]amino]carbonyl]-3-[4-(trifluoromethyl)phenyl]-2-quinoxalinepentanoic acid] had an inhibitory constant (Ki) of 0.0021 to 0.02 µM. Still for that read-out and setting: in the case of `O=C(O)CCCCc1nc2cc(C(=O)N3CCC(c4ccccc4)CC3)ccc2nc1-c1ccc(C(F)(F)F)cc1` [compound 148, 7-[(4-phenyl-1-piperidinyl)carbonyl]-3-[4-(trifluoromethyl)phenyl]-2-quinoxalinepentanoic acid] it was 0.0001 to 0.002 µM; in that of `O=C(O)CCCCc1nc2cc(C(=O)N[C@@H](c3ccccc3)C(F)(F)F)ccc2nc1-c1ccc(C(F)(F)F)cc1` [compound 149, 3-[4-(trifluoromethyl)phenyl]-7-[[(2,2,2-trifluoro-1(S)-phenylethyl)amino]carbonyl]-2-quinoxalinepentanoic acid], 0.0021 to 0.02 µM.

In turn, `O=C(O)CCCCc1nc2cc(C(=O)NC3Cc4ccccc4C3)ccc2nc1-c1ccc(C(F)(F)F)cc1` [compound 150, 7-[[(2,3-dihydro-1H-inden-2-yl)amino]carbonyl]-3-[4-(trifluoromethyl)phenyl]-2-quinoxalinepentanoic acid] came in with a Ki of 0.0001 to 0.002 µM. On to `O=C(O)CCCCc1nc2cc(C(=O)NCc3cccc(Cl)c3)ccc2nc1-c1ccc(C(F)(F)F)cc1` [compound 151, 7-[[[(3-chlorophenyl)methyl]amino]carbonly]-3-[4-(trifluoromethyl)phenyl]-2-quinoxalinepentanoic acid], for which the Ki lay in the range of 0.0001 to 0.002 µM. `O=C(O)CCCCc1nc2cc(C(=O)N3CC(c4ccccc4)C3)ccc2nc1-c1ccc(C(F)(F)F)cc1` [compound 154, 7-[(3-phenyl-1-azetidinyl)carbonyl]-3-[4-(trifluoromethyl)phenyl]-2-quinoxalinepentanoic acid] gave an inhibition constant Ki of 0.0001 to 0.002 µM. `O=C(O)CCCCc1nc2cc(C(=O)NCc3ccc(Cl)cc3)ccc2nc1-c1ccc(C(F)(F)F)cc1` [compound 155, 7-[[[(4-chlorophenyl)methyl]amino]carbonyl]-3-[4-(trifluoromethyl)phenyl]-2-quinoxalinepentanoic acid]: the Ki was 0.0021 to 0.02 µM. The same measure, in the same setting: in the case of `O=C(O)CCCCc1nc2cc(C(=O)NCc3ccc(OC(F)(F)F)cc3)ccc2nc1-c1ccc(C(F)(F)F)cc1` [compound 156, 7-[[[[4-(trifluoromethoxy)phenyl]methyl]amino]carbonyl]-3-[4-(trifluoromethyl)phenyl]-2-quinoxalinepentanoic acid] it was 0.0021 to 0.02 µM; in that of `N#Cc1ccc(CNC(=O)c2ccc3nc(-c4ccc(C(F)(F)F)cc4)c(CCCCC(=O)O)nc3c2)cc1` [compound 157, 7-[[[(4-cyanophenyl)methyl]amino]carbonyl]-3-[4-(trifluoromethyl)phenyl]-2-quinoxalinepentanoic acid], 0.0021 to 0.02 µM. `O=C(O)Cc1ccc(CCc2nc3cc(C(=O)N4CCC(c5ccccc5)CC4)ccc3nc2-c2ccc(Cl)cc2)cc1` [compound 158, 4-[2-[3-(4-chlorophenyl)-7-[(4-phenyl-1-piperidinyl)carbonyl]-2-quinoxalinyl]ethyl] benzeneacetic acid] registered a Ki of 0.201 to 0.7 µM. The same measure, in the same setting: in the case of `O=C(O)Cc1ccc(CCc2nc3cc(C(=O)NCc4cccc(Cl)c4)ccc3nc2-c2ccc(Cl)cc2)cc1` [compound 159, 4-[2-[3-(4-chlorophenyl)-7-[[[(3-chlorophenyl)methyl]amino]carbonyl]-2-quinoxalinyl]ethyl] benzeneacetic acid] it was 0.201 to 0.7 µM; in that of `CC(CCCc1nc2cc(C(=O)NCc3cccc(F)c3)ccc2nc1-c1ccc(Cl)cc1)C(=O)O` (stereo not drawn) [compound 160, 3-(4-chlorophenyl)-7-[[[(3-fluorophenyl)methyl]amino]carbonyl]-alpha-methyl-2-quinoxalinepentanoic acid], 0.0021 to 0.02 µM; in that of `CC(CCCc1nc2cc(C(=O)NCc3ccc(F)cc3)ccc2nc1-c1ccc(Cl)cc1)C(=O)O` (stereo not drawn) [compound 161, 3-(4-chlorophenyl)-7-[[[(4-fluorophenyl)methyl]amino]carbonyl]-alpha-methyl-2-quinoxalinepentanoic acid], 0.0021 to 0.02 µM. The same measure, in the same setting: the value for `CC(CCCc1nc2cc(C(=O)N3CCC(c4ccccc4)CC3)ccc2nc1-c1ccc(Cl)cc1)C(=O)O` (stereo not drawn) [compound 162, 3-(4-chlorophenyl)-alpha-methyl-7-[(4-phenyl-1-piperidinyl)carbonyl]-2-quinoxalinepentanoic acid] was 0.0001 to 0.002 µM; that for `CC(CCCc1nc2cc(C(=O)N[C@@H](c3ccccc3)C(F)(F)F)ccc2nc1-c1ccc(Cl)cc1)C(=O)O` (stereo partly drawn) [compound 163, 3-(4-chlorophenyl)-alpha-methyl-7-[[(2,2,2-trifluoro-1(S)-phenylethyl)amino]carbonyl]-2-2-quinoxalinepentanoic acid] was 0.0021 to 0.02 µM. In turn, `CC(CCCc1nc2cc(C(=O)NCc3ccc(C#N)cc3)ccc2nc1-c1ccc(Cl)cc1)C(=O)O` (stereo not drawn) [compound 164, 3-(4-chlorophenyl)-7-[[[(4-cyanophenyl)methyl]amino]carbonyl]-alpha-methyl-2-quinoxalinepentanoic acid] registered a Ki of 0.0021 to 0.02 µM. On to `CC(CCCc1nc2cc(C(=O)N3CC(c4ccccc4)C3)ccc2nc1-c1ccc(Cl)cc1)C(=O)O` (stereo not drawn) [compound 165, 3-(4-chlorophenyl)-alpha-methyl-7-[(3-phenyl-1-azetidinyl)carbonyl]-2-quinoxalinepentanoic acid], for which the inhibition constant (Ki) lay within 0.0021 to 0.02 µM.

With `CC(CCCc1nc2cc(C(=O)N[C@H](C)c3ccc(F)cc3)ccc2nc1-c1ccc(Cl)cc1)C(=O)O` (stereo partly drawn) [compound 166, 3(4-chlorophenyl)-7-[[[1(R)-(4-fluorophenyl)ethyl]amino]carbonyl]-alpha-methyl-2-quinoxalinepentanoic acid], the Ki lay within 0.0021 to 0.02 µM. `CC(CCCc1nc2cc(C(=O)N[C@@H](C)c3ccc(F)cc3)ccc2nc1-c1ccc(Cl)cc1)C(=O)O` (stereo partly drawn) [compound 167, 3-(4-chlorophenyl)-7-[[[1(S)-(4-fluorophenyl)ethyl]amino]carbonyl]-alpha-methyl-2-quinoxalinepentanoic acid] showed a Ki of 0.0021 to 0.02 µM. Take `CC(CCCc1nc2cc(C(=O)NC3Cc4ccccc4C3)ccc2nc1-c1ccc(Cl)cc1)C(=O)O` (stereo not drawn) [compound 168, 3-(4-chlorophenyl)-7-[[(2,3-dihydro-1H-inden-2-yl)amino]carbonyl]-alpha-methyl-2-quinoxalinepentanoic acid]: the inhibition constant (Ki) is 0.0021 to 0.02 µM. `CC(CCCc1nc2cc(C(=O)N3CCN(c4ccccc4)CC3)ccc2nc1-c1ccc(Cl)cc1)C(=O)O` (stereo not drawn) [compound 169, 3-(4-chlorophenyl)-alpha-methyl-7-[(4-phenyl-1-piperazinyl)carbonyl]-2-quinoxalinepentanoic acid]: the Ki was in the range of 0.0021 to 0.02 µM. With `C[C@]1(c2ccccc2)CCCN(C(=O)c2ccc3nc(-c4ccccc4)c(CCCCC(=O)O)nc3c2)C1` [compound 170, 7-[(3(R)-methyl-3-phenyl-1-piperidinyl)carbonyl]-3-phenyl-2-quinoxalinepentanoic acid], the inhibitory constant (Ki) was 0.0021 to 0.02 µM. On to `C[C@@]1(c2ccccc2)CCCN(C(=O)c2ccc3nc(-c4ccccc4)c(CCCCC(=O)O)nc3c2)C1` [compound 171, 7-[(3(S)-methyl-3-phenyl-1-piperidinyl)carbonyl]-3-phenyl-2-quinoxalinepentanoic acid], for which the Ki fell in the range of 0.0021 to 0.02 µM.

The test is the same for the next values; noted with them: [3H]PGD2 binding, values in text.
Regarding `NC(=O)c1ccc2nc(-c3ccccc3)c(CCCCC(=O)O)nc2c1` [compound 144, 5-(7-carbamoyl-3-phenylquinoxalin-2-yl)pentanoic acid], the inhibitory constant (Ki) came to 0.118 µM. With `C[C@H](NC(=O)c1ccc2nc(-c3ccc(C(F)(F)F)cc3)c(CCCCC(=O)O)nc2c1)c1ccccn1` [compound 146, 7-[[[1(S)-(2-pyridinyl)ethyl]amino]carbonyl]-3-[4-(trifluoromethyl)phenyl]-2-quinoxalinepentanoic acid], affinity was put at a Ki of 0.132 µM.

Regarding `O=C(O)Cc1ccc(CCc2nc3cc(C(=O)NCc4cccc(Cl)c4)ccc3nc2-c2ccc(Cl)cc2)cc1` [compound 159, 4-[2-[3-(4-chlorophenyl)-7-[[[(3-chlorophenyl)methyl]amino]carbonyl]-2-quinoxalinyl]ethyl] benzeneacetic acid], the Ki stood at 0.564 µM.

Values taken from patent US9469615B2, “Quinoxalines and AZA-quinoxalines as CRTH2 receptor modulators” (Merck Sharp & Dohme Corp., priority 2010, dated 2016).
